We go through 13 molecules from paper PMC10931776, “Modes of Interactions with DNA/HSA Biomolecules and Comparative Cytotoxic Studies of Newly Synthesized Mononuclear Zinc(II) and Heteronuclear Platinum(II)/Zinc(II) Complexes toward Colorectal Cancer Cells” (International Journal of Molecular Sciences, 2024).

Read-outs that look alike come from different tables or passages of the source.

Test [1] addresses B-DNA (PDB ID: 1BNA). Details: method as in PMID 36535193, doi:10.1002/aoc.7413. Conditions: previously tested complexes; ref [11],[12]; read-out: Ki (inhibition constant), docking with DNA; cited from earlier work.
The subject of test [2] is CT-DNA. Kind of test: Ethidium bromide/CT-DNA fluorescence quenching (EB displacement). It is filed as binding. Conditions: EB/CT-DNA 1:1, 5 µM, PBS pH 7.4, room temperature, λex 527 nm, λem 612 nm. The source says: Fluorescent spectroscopy allows the determination of the intercalation potential of compounds. Intercalation involves planar aromatic molecules binding between the base pairs of DNA chains, causing them to elongate. Ethidium bromide (EB) is commonly used as a DNA intercalator and produces high levels of fluorescent emissions at 612 nm when intercalating between DNA strands. However, the addition of compounds that can intercalate between DNA strands and suppress the effects of EB will reduce fluorescent emissions. If a complex is able to replace EB, fluorescence reduction will occur, indicating the complex’s ability to bind intercalatively. Figure 3 and Figures S10–S13 show the results of fluorescence titrations in the presence of intercalator EB, where the emission intensity of a constant CT-DNA/EB solution concentration of 5 µM was monitored with increasing complex concentration up to a ratio of 5.
To determine whether the complex could displace EB from the CT-DNA-EB complex, the interactions of the complex with CT-DNA were examined in the presence of EB. The CT-DNA-EB solution was formed by combining EB and CT-DNA solutions with a concentration of 5 μM at a pH of 7.4. The impact of the complex binding to the CT-DNA was measured by analyzing the fluorescence emission spectrum after the addition of the examined complexes solution in increasing concentration, Figure 3.
The binding affinity of the complexes C1–C5 to CT-DNA via intercalation was determined using fluorescence spectroscopy. All measurements were conducted at room temperature in 0.01 M PBS with a pH of 7.4. Fluorescence measurements were performed by adding increasing complex concentrations (0–50 μM) to a CT-DNA and EB solution. Before each measurement, the system was shaken at room temperature. The fluorescence intensity was measured with the wavelength of excitation at 527 nm and the wavelength of emission at 612 nm. The width of the excitation and emission slits (10 nm) and scan rate were maintained at a constant rate. The emission of the solution was recorded in the range of 550 to 750 nm. The Stern–Volmer constants, Ksv, were determined by Equation (2). I0/I = 1 + Ksv[Q](2) [Q] is the concentration of the complex, I0 and I represent emission intensities in the absence and presence of complex, and Ksv is the Stern–Volmer constant obtained from the slope of the plot of I0/I vs. [Q] [25, 26, 27, 28].

Test [3] has as its target T1, Human serum albumin (HSA) (Homo sapiens, UniProt P02768).
T1 construct: reagents in general came from Sigma-Aldrich, Acros Organics or Merck
Kind of test: HSA fluorescence quenching. Format: binding. Conditions: for Stern–Volmer constant Ksv, HSA: HSA 2 µM, complex 0–30 µM, PBS pH 7.4, room temperature, λex 295 nm. The source says: Human serum albumin (HSA) produces a fluorescence signal when excited at 295 nm due to the tryptophan residues. This characteristic makes fluorescence spectroscopy an effective tool for studying complex interactions involving HSA. If the examined complex interacts with HSA, an increasing concentration of the complex will lead to a decrease in fluorescence, as shown in Figure 4 and Figures S14–S17. […] The Stern–Volmer equation (Equation (S2)) was used to determine the Stern–Volmer constant, Ksv, for the HSA interactions.
The binding affinity of the complexes C1–C5 to HSA has been determined through fluorescence quenching experiments. The measurements were conducted in a 0.01 M PBS with a pH of 7.4 at room temperature. The HSA concentration was kept constant at 2 μM while the concentration of complexes C1–C5 was increased from 0 to 30 μM, resulting in a significant decrease in emissions at 352 nm. Before each measurement, the system was shaken at room temperature. The fluorescence intensity was measured with the wavelength of excitation at 295 nm and recorded in the 300 to 500 nm range. The width of the excitation and emission slits (10 nm) and scan rate were maintained at a constant rate. The Stern–Volmer constants, Ksv, were determined by Equation (2).

The subject of test [4] is mouse colorectal carcinoma (CT26). Put plainly: MTT cytotoxicity assay, CT26. Format: cell-based. The settings on record: 48 h; for IC50: read-out: IC50 ± SEM, CT26. As for the experimental part:
(§1) The in vitro cytotoxicity of newly synthesized mono- and heteronuclear platinum(II)/and zinc(II) complexes, featuring a 4,4′,4″-tri-tert-butyl-2,2′:6′,2″-terpyridine ligand (designated as C1–C5), was assessed using MTT assay procedures. This evaluation targeted various cell lines: mouse colorectal carcinoma (CT26), human colorectal carcinoma (HCT116 and SW480), and non-cancerous mouse mesenchymal stem cells (mMSC). These cell lines were exposed to synthesized complexes for 48 h, with concentrations ranging from 1.17 to 150 μM.
(§2) In our study, various cell lines were cultured, including mouse colorectal carcinoma (CT26), human colorectal carcinoma (HCT116 and SW480) obtained from ATCC, USA, and mouse mesenchymal stem cells (mMSC, Gibco), New York, NY, USA). These cell lines were consistently maintained in complete Dulbecco’s Modified Eagle Medium (DMEM) supplemented with 10% fetal bovine serum (FBS) (Sigma Aldrich, St. Louis, MO, USA), 100 IU/mL penicillin, and 100 μg/mL streptomycin antibiotics (Invitrogen, Carlsbad, CA, USA). The cultures were incubated at 37 °C in a humidified atmosphere of 5% carbon dioxide (CO2). […] The viability and count of the cells were determined using Trypan blue staining, ensuring the accuracy and reliability of the experimental outcomes.
(§3) The cytotoxic effects of five newly synthesized complexes, alongside cisplatin, were assessed through the MTT assay method, in line with previously established protocols. During the exponential growth phase, cells were collected from culture flasks, counted, and then seeded in 96-well culture plates at a density of 5·10^3 cells per well. Subsequent treatment involved exposing these cells to varying concentrations of the newly synthesized complexes and cisplatin (ranging from 1.17 to 150 μM) for a duration of 48 h, with fresh complete medium serving as the control. The results were quantified relative to the control (untreated cells), providing a comparative measure of cytotoxicity. Additionally, IC50 values, representing the concentration required to inhibit 50% of the cell viability, were calculated using Microsoft Office Excel 2010. Lastly, the data were presented as percentages of viable cells in accordance with the methodology outlined in the referenced study, facilitating a comprehensive understanding of the anticancer potential of these compounds.

The test system of test [5] is human colorectal carcinoma (SW480). Kind of test: MTT cytotoxicity assay, SW480. Format: cell-based. The settings on record: 48 h; for IC50: read-out: IC50 ± SEM, SW480. As for the experimental part: as §1, §2, §3
The subject of test [6] is mouse mesenchymal stem cells (mMSC). Put plainly: MTT cytotoxicity assay, mMSC. Format: cell-based. Conditions: 48 h, non-cancerous cells, read-out: IC50 ± SEM, mMSCs. As for the experimental part:
as §1
In the context of developing low-toxicity drugs, it is imperative to evaluate the antiproliferative activity against normal cells. The in vitro toxicity of the tested complexes toward normal mouse mesenchymal stem cells (mMSC) was examined. […] These findings indicate the possibility of enhanced in vivo tolerance for this complex.
as §2, §3
On the technique in general: Tetrazolium assays rely on reduction of a dye to a coloured formazan, in cell work by metabolically active cells.

The test system of test [7] is human colorectal carcinoma (HCT116). Kind of test: MTT cytotoxicity assay, HCT116. It is filed as cell-based. Conditions: 48 h; for IC50: read-out: IC50 ± SEM, HCT 116. As for the experimental part:
as §1, §2, §3

Test [8] concerns the target T1, Human serum albumin (HSA). The arrangement: method as in earlier work. The settings on record: literature value; ref [24]; cited from earlier work.

T1 sequence (P02768 25-609): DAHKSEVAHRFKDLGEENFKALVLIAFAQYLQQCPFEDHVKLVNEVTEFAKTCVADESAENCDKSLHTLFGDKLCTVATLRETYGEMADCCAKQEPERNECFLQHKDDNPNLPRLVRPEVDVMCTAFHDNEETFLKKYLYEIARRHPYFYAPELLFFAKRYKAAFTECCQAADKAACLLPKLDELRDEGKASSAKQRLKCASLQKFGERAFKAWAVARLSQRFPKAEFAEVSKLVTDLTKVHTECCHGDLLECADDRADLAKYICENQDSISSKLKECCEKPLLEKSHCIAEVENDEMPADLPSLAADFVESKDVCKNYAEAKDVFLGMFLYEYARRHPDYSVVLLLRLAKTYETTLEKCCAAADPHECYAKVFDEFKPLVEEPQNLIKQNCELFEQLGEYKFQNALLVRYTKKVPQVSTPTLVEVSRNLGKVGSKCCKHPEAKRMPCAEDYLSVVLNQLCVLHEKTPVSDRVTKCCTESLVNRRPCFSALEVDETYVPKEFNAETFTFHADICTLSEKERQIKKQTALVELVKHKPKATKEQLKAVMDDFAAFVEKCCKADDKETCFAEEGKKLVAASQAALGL

By Ki is commonly meant the dissociation constant of the complex between target and ligand, obtained from inhibition or displacement. Turning to “[{trans-PtCl(NH3)2(μ-4,4′-bipyridyl)ZnCl(terpy)}](ClO4)2 [C4b]”, the Ki in test [1] is 1.22 µM.
Turning to “[{trans-PtCl(NH3)2(μ-pyrazine)ZnCl(terpy-Cl)}](ClO4)2 [C2a]”, the Ki in test [1] was 231 µM.
In general, IC50 refers to the concentration that inhibits the measured activity by half. Turning to “[{cis-PtCl(NH3)2(μ-4,4′-bipyridyl)ZnCl(terpy^t^Bu)}](CIO4)2 [C4]”, the “Stern–Volmer constant Ksv, CT-DNA” value in test [2] is 5.2 ± 0.1 10^4 M^–1. Besides, in test [3], the “Stern–Volmer constant Ksv, HSA” value is reported as 22.7 ± 0.1 10^4 M^–1. The “Ksv value for HSA, order of magnitude” value in test [3] (fluorescence quenching of HSA) is reported as ~10^5 M^−1. In test [4], the “Selectivity Index (IC50 mMSC/IC50), CT26” value came to 0.3 and the IC50 came out at 183 ± 72.4 µM. Also, in test [5], the “Selectivity Index (IC50 mMSC/IC50), SW480” value (from here on “Selectivity Index … SW480”) is reported as 0.6 and the IC50 was 94.1 ± 9.89 µM. In test [6], the IC50 was found to be 60.3 ± 24.7 µM. Moreover, in test [7], the “Selectivity Index (IC50 mMSC/IC50), HCT 116” value (“Selectivity Index … HCT 116” below) is recorded as 0.7 and the IC50 stood at 89.4 ± 6.7 µM.
In the case of “[{cis-PtCl(NH3)2(μ-4,4′-bipyridyl)ZnCl(terpy-Cl)}](ClO4)2 [C3a]”, the inhibition constant (Ki) in test [1] is 52.1 µM.
Take “[{cis-PtCl(NH3)2(μ-pyrazine)ZnCl(terpy-Cl)}](ClO4)2 [C1a]”: in test [1], the Ki was 248 µM.
In the case of `N.N.[Cl][Pt][Cl]` [cisplatin, reference compound], in test [4], the “Selectivity Index (IC50 mMSC/IC50), CT26” value is 0.8 and the IC50 came to 9.03 ± 3.55 µM. In test [5], the “Selectivity Index … SW480” value amounted to 0.7 and the IC50 was 10.1 ± 3.98 µM. The IC50 in test [6] was 7.32 ± 2.51 µM. In addition, in test [7], the “Selectivity Index … HCT 116” value was determined as 0.5 and the IC50 came to 14.7 ± 2.21 µM. Further, the “Stern–Volmer constant Ksv, HSA” value in test [8] is reported as 0.24 ** 10^4 M^–1.
Take “[{trans-PtCl(NH3)2(μ-pyrazine)ZnCl(terpy)}](ClO4)2 [C2b]”: the Ki in test [1] was 16.3 µM.
As to “[{trans-PtCl(NH3)2(μ-4,4′-bipyridyl)ZnCl(terpy^t^Bu)}](CIO4)2 [C5]”, in test [2], the “Stern–Volmer constant Ksv, CT-DNA” value is recorded as 2.9 ± 0.1 10^4 M^–1. Besides, in test [3], the “Stern–Volmer constant Ksv, HSA” value was 9.5 ± 0.1 10^4 M^–1. Further, in test [4], the “Selectivity Index (IC50 mMSC/IC50), CT26” value worked out at 0.4 and the IC50 was 108 ± 79.9 µM. Further, in test [5], the “Selectivity Index … SW480” value amounted to 0.5 and the IC50 was found to be 75.4 ± 21.2 µM. Besides, in test [6], the half-maximal inhibitory concentration (IC50) worked out at 40.2 ± 3.96 µM. In test [7], the “Selectivity Index … HCT 116” value came to 0.3 and the IC50 is 152 ± 26.8 µM.
Take “[{cis-PtCl(NH3)2(μ-pyrazine)ZnCl(terpy)}](ClO4)2 [C1b]”: the Ki in test [1] is 18.1 µM.
As to “[{trans-PtCl(NH3)2(μ-4,4′-bipyridyl)ZnCl(terpy-Cl)}](ClO4)2 [C4a]”, the Ki in test [1] was 117 µM.
Take “[{cis-PtCl(NH3)2(μ-4,4′-bipyridyl)ZnCl(terpy)}](ClO4)2 [C3b]”: the inhibition constant (Ki) in test [1] is 1.01 µM.
For `CC(C)(C)c1ccnc(-c2cc(C(C)(C)C)cc(-c3cc(C(C)(C)C)ccn3)n2)c1.N.N.[Cl-].[Cl-].[O-][Cl+3]([O-])([O-])[O-].[O-][Cl+3]([O-])([O-])[O-].[Pt+2].[Zn+2].c1cnccn1` [C2, [{cis-PtCl(NH3)2(μ-pyrazine)ZnCl(terpy^t^Bu)}](ClO4)2], the “Stern–Volmer constant Ksv, CT-DNA” value in test [2] was 2.9 ± 0.1 10^4 M^–1. In addition, the “Stern–Volmer constant Ksv, HSA” value in test [3] is listed as 5.8 ± 0.1 10^4 M^–1. For the same molecule, in test [4], the “Selectivity Index (IC50 mMSC/IC50), CT26” value is on record as 0.3. Moreover, the IC50 was found to be 35.1 ± 39.6 µM in test [4], 25.7 ± 2.93 µM in test [5], 10.1 ± 0.98 µM in test [6] and 26.6 ± 25.9 µM in test [7]. The “Selectivity Index … SW480” value in test [5] was found to be 0.4. Moreover, the “Selectivity Index … HCT 116” value in test [7] is listed as 0.4.
Turning to “[{trans-PtCl(NH3)2(μ-pyrazine)ZnCl(terpy^t^Bu)}](ClO4)2 [C3]”, in test [2], the “Stern–Volmer constant Ksv, CT-DNA” value is reported as 2.1 ± 0.1 10^4 M^–1. In test [3], the “Stern–Volmer constant Ksv, HSA” value was 4.5 ± 0.1 10^4 M^–1. Also, the “Selectivity Index (IC50 mMSC/IC50), CT26” value in test [4] is 0.4. In addition, the IC50 came to 210 ± 87 µM in test [4], 68.1 ± 5.21 µM in test [5], 76.2 ± 12 µM in test [6] and 181 ± 105 µM in test [7]. Also, the “Selectivity Index … SW480” value in test [5] was 1.1. Further, in test [7], the “Selectivity Index … HCT 116” value is recorded as 0.4.
